# Results reported in patent US20180200233A1, “COMPOSITIONS FOR PREVENTING CANCERS ASSOCIATED WITH HUMAN PAPILLOMA VIRUSES” (Loma Linda University, priority 2015, published 2018).
# Target: T1, GST-E6/His-caspase 8 (Human papillomavirus type 16, UniProt P03126)
# T1 construct: made in house
# Assay: AlphaScreen bead-based assay, GST-E6/His-caspase 8 binding
# Parameters: species or system HPV 16
# Protocol: FIGS. 2A-C are graphs providing data regarding inhibition of protein-protein interactions by 3-(1H-indol-1yl)propan-1-amine (1), three benzimidazole derivatives (2-4), and spinacine (5). Compounds, at the indicated concentrations (1.4 μM to 3.2 mM) were tested using a bead-based screening assay for their ability to inhibit three different protein/protein interactions: (FIG. 2A) GST-E6/His-caspase 8; (FIG. 2B) GST-E6/HisE6AP; and (FIG. 2C) GST-caspase 8/His-caspase 8. Binding in the presence of 1.4 μM of the test compound was set at 100%. Experiments were performed in triplicate, and error bars indicate the standard deviation.
# HPV E6 binds to caspase 8 (Garnett, T. O., M. Filippova, and P. J. Duerksen-Hughes, Accelerated degradation of FADD and procaspase 8 in cells expressing human papilloma virus 16 E6 impairs TRAIL-mediated apoptosis. Cell death and differentiation, 2006. 13(11): p. 1915-26), and myricetin can block the E6/caspase 8 interaction in vitro (Yuan, C. H., et al., Small molecule inhibitors of the HPV16-E6 interaction with caspase 8. Bioorganic & medicinal chemistry letters, 2012. 22(5): p. 2125-9). A bead-based assay based on AlphaScreen™ technology (Perkin-Elmer) is used to identify inhibitors of the E6/caspase 8 interaction (Yuan, C. H., et al., Small molecule inhibitors of the HPV16-E6 interaction with caspase 8. Bioorganic & medicinal chemistry letters, 2012. 22(5): p. 2125-9). The ActiProbe 2K (2,000 compounds) library was screened using the same approach. […] Analysis of the structures and physical/chemical characteristics of those molecules led to the selection of five additional compounds: 3-(1H-indol-1-yl)propan-1-amine methanesulfonate (1), benzimidazole (2), 1H-benzimidazole-1-methanol (3), 2-(methoxymethyl)-1H-benzimidazole (4), and spinacine (5) for further study (FIG. 1).
# To determine the dose-responsiveness of these five compounds, variable concentrations of those small molecules were first tested for their ability to inhibit E6/caspase binding. […] These molecules, which had been selected for their ability to interfere with E6/caspase 8 binding, were then tested to determine if they could also affect other interactions of E6, such as its binding to E6-associated protein (E6AP). The E6/E6AP interaction is required for the E6-mediated acceleration of p53 degradation (Huibregtse, J. M., M. Scheffner, and P. M. Howley, A cellular protein mediates association of p53 with the E6 oncoprotein of human papillomavirus types 16 or 18. The EMBO journal, 1991. 10(13): p. 4129-35).
# Alpha-Screen™ technology was used to assess the interactions between GST-E6, GST-caspase 8, His-E6AP, and His-caspase 8. Binding assays were performed in white 384-well plates (Perkin-Elmer) in a total volume of 25 μl as previously described (Tungteakkhun, S. S., et al., The interaction between human papillomavirus type 16 and FADD is mediated by a novel E6 binding domain. Journal of virology, 2008. 82(19): p. 9600-14). Briefly, 5 μl (50 ng) of GST-E6 and 5 μl (87.5 ng) of His-caspase 8 were included in each reaction mixture with 5 μl blocking buffer (0.5 mg BSA, 0.5% Tween 20 in PBS) in the absence or presence of 10 μM of each test chemical. […] The mixture was incubated in the dark at room temperature overnight, and the emitted signal was detected using the Envision Multilabel plate reader (Perkin-Elmer). In the presence of test chemicals, the binding affinity was calculated as a percentage of the binding in the presence of carrier only (DMSO).
# T1 sequence (P03126 whole entry): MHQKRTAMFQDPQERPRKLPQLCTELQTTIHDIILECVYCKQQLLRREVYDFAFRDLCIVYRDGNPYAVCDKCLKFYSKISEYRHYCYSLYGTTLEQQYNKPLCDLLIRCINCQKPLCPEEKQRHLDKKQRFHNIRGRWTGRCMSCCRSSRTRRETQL
structure (smiles),measurement,setting,value
"OCn1cnc2ccccc21 [Compound 3, 1H-benzimidazole-1-methanol]",EC50 for GST-E6/His-caspase 8 interaction,"bead-based assay, compounds tested 1.4 μM to 3.2 mM",No Inhibition
"O=C(O)C1Cc2[nH]cnc2CN1 (centres unmarked) [Compound 5, 4,5,6,7-Tetrahydro-1H-imidazo(4,5-c)pyridine-6-carboxylic acid]",inhibition of E6/caspase 8 binding (in words),"FIG. 2A, primary screen at 10 μM",dose-dependent inhibition
